Results published in patent US6569866B2, “Sustained-release nalmefene preparations and method” (priority 1996, dated 2003).

Experiments:
[1] = cited from earlier work
kappa-receptor = kappa-receptor (Homo sapiens, UniProt P41145); conditions: Kreek et al.; cited from earlier work
[2] = target: intraspinal kappa receptors (Rattus norvegicus, UniProt P34975); conditions: after spinal cord injury; Bakshi et al.; cited from earlier work
[3] = per os administration; cited from earlier work
[4] = single dose after acute spinal cord injury; Behrmann et al.; cited from earlier work
[5] = Expected serum concentration after intranasal nalmefene spray (10 mg/ml solution, 0.1 ml per spray); format: in vivo, human
Description: A tartrate, stearate or palmitate formulation of nalmefene may be used, or nalmefene may be in the form of nalmefene hydrochloride, and formulated such that 1 gram of active nalmefene is mixed with 80 ml of distilled water, then adjusted to a pH of approximately 7.4 with dilute sodium hydroxide, and then isotonic saline is added along with a suitable preservative and antibacterial agent, to yield a total volume of 100 ml. This yields a nalmefene solution with a concentration of 10 mg/ml nalmefene. This final solution is passed through a 0.2 micron Millipor filter to remove bacteria and other undesired particles. The filtered solution is then placed aseptically into a container to which is then attached a metered dosing mechanism which allows approximately 0.1 ml to be delivered in each spray. An example of such a metered dosing system in found with the commercially marketed Stadol NS® (Bristol-Myers Squibb Co.). One spray to one nostril may be expected to yield a blood serum concentration of approximately 1 ng/ml 30-90 minutes after administration. […] Alternatively, the human may be given a loading dose of intravenous nalmefene and then transferred to a nasal administration regimen. A practical dosing schedule for nalmefene may be 1.5 mg intranasally every 12 hours. […]

Chain of kappa-receptor (P41145 whole entry): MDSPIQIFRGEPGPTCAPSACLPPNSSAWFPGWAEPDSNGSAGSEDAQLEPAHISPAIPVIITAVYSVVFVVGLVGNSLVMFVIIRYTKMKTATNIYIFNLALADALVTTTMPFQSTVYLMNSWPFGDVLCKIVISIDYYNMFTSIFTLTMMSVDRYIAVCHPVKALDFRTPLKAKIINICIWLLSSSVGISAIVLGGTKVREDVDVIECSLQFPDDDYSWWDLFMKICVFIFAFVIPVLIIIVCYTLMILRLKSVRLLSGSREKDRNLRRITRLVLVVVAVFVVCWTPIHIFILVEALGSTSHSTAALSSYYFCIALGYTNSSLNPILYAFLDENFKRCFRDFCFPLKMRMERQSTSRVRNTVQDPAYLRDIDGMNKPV
Chain of intraspinal kappa receptors (P34975 whole entry): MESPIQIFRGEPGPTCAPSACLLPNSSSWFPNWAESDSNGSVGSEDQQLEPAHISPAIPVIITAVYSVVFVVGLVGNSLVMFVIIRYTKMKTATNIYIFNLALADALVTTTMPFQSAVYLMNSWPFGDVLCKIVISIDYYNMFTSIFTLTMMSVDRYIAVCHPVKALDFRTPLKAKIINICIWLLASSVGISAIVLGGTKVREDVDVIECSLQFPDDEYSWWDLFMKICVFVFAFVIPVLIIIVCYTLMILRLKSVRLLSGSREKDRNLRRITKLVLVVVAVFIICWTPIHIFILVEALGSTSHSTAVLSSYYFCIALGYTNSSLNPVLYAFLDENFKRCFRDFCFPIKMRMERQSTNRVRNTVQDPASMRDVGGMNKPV

Structure (SMILES)	average volume of distribution (Vd) ([1]; approximate average in non-elderly adult humans) [L/kg]	serum half life ([1]; in vivo)	elimination constant (Ke) ([1]; value furnished by a distributor of nalmefene) [h⁻¹]	potency as kappa-receptor antagonist compared with other antagonists (kappa-receptor)	effect on dynorphin induced motor dysfunction [2]	first pass metabolism [3]	effect on neurological recovery / neuroprotection [4]	steady state serum concentration ([5]; 5 consecutive 1 mg intranasal doses approximately 11 hours apart)	blood serum concentration after one spray ([5]; one 0.1 ml spray of 10 mg/ml solution to one nostril, 30-90 minutes after administration)
C=C1CC[C@@]2(O)[C@H]3Cc4ccc(O)c5c4[C@@]2(CCN3CC2CC2)[C@H]1O5 [nalmefene]	~8.6	approximately 10.8 hours	0.0642	more potent than either naloxone or naltrexone	limits dynorphin induced motor dysfunction	very significant first pass metabolism	significant neuroprotective effect	approximately 1 ng/ml	approximately 1 ng/ml
O=C1CC[C@@]2(O)[C@H]3Cc4ccc(O)c5c4[C@@]2(CCN3CC2CC2)[C@H]1O5 [naltrexone]	–	–	–	–	–	very significant first pass metabolism	–	–	–
